Consider two compounds from patent publication US6187807A, “Methods of use and compositions of (S) (-)-amisulpride” (Sanofi-Synthelabo, priority 1999, dated 2001).

Where only a bound is given, the exact number is not on record here.

Series [1] concerns apomorphine-induced stereotypies. Description: Antagonism of apomorphine-induced stereotypies. The series is classed as in vivo. Particulars: comparison in words. As for the experimental part: (§1) The propensity of the drugs to induce extrapyramidal side effects was assessed by measuring their potential to induce catalepsy and to antagonize apomorphine-induced stereotyped behaviour and the sedative potential of the drugs was evaluated by their capacity to decrease spontaneous locomotor activity in the rat.
(§2) For scoring stereotypies, the following scale was used: 0: asleep; 1: awake; quiet; 2: locomotion, head bobbing; 3: sniffing; 4: licking; 5: chewing/gnawing. For each rat, a global score was calculated by averaging the 3 stereotypy scores obtained at 10 min intervals.

The nature of series [2]: Antagonism of apomorphine-induced stereotypies. Type of series: in vivo. Particulars: rat, in vivo; ip; apomorphine 0.5 mg/kg sc, 30 min after drug. Here is the method: as §1, §2
Series [3] concerns apomorphine-induced hypermotility. Description: Antagonism of apomorphine-induced hypermotility. Particulars: Rattus norvegicus, ip, 0.5 h, read-out: Antagonism of apomorphine-induced hypermotility (ED50).
From the text: These experimental conditions produce low baseline locomotor activity suitable for assessing increases in locomotion produced by apomorphine.
Series [4] deals with d-amphetamine-induced hypermotility. As to the kind of experiment: Antagonism of d-amphetamine-induced hypermotility. Particulars: for ED50: Rattus norvegicus, ip, 0.5 h, read-out: Antagonism of d-amphetamine-induced hypermotility (ED50).
Method: d-Amphetamine-induced hyperactivity was recorded for 20 min, 30 min after injection of d-amphetamine (2 mg/kg, ip) immediately after placing rats in the activity cages without habituation according to Gh.
Series [5] is described as follows: in vivo. Particulars: rat, ip, measured 2 hours and 4 hours after drug, read-out: Induction of catalepsy (ED50). Here is the method:
as §1
The occurrence of catalepsy in rats was assessed using the four-cork test. This measurement was performed by placing each paw of the rat on a 2.5 cm high cork (diameter 1.2 cm). Distance between contralateral corks was 8 cm and between ipsilateral corks 13 cm. Catalepsy time was measured for a maximum of 2 min at 2 hours, and 4 hours after ip drug treatment.

Series [6] can be described thus: in vivo. Particulars: rat, ip, 20 min recording, 30 min after drug, read-out: Decrease in spontaneous locomotor activity (ED50). Here is the method: as §1
Spontaneous locomotor activity was measured for 20 min immediately after rats were placed in the activity cages, 30 min after drug treatment.

For `CCN1CCC[C@H]1CNC(=O)c1cc(S(=O)(=O)CC)c(N)cc1OC` [(S)(-)-amisulpride, (S)-(-)-4-amino-N-[(1-ethylpyrrolidin-2-yl)methyl]-5-(ethylsulfonyl)-2-methoxybenzamide], the “Potency at antagonizing apomorphine-induced stereotypies, (S)(-)-amisulpride compared with (R,S)-amisulpride” value in series [1] was “equipotent”. Besides, the ED50 in series [2] is 100 mg/kg; in series [3], 15 mg/kg; in series [4], 1.2 mg/kg; in series [5], more than 100 mg/kg; in series [6] it was 100 mg/kg. In addition, the “Potency in tests predictive of antipsychotic activity, compared with (R,S)-amisulpride” value in series [4] (antagonism of apomorphine or amphetamine hyperlocomotion, in words) was “twice as potent”.

Turning to `CCN1CCCC1CNC(=O)c1cc(S(=O)(=O)CC)c(N)cc1OC` (racemic) [(R,S)-amisulpride, reference compound], the “Potency at antagonizing apomorphine-induced stereotypies, (S)(-)-amisulpride compared with (R,S)-amisulpride” value in series [1] is recorded as “equipotent”. Moreover, the ED50 was 115 mg/kg in series [2]; 30 mg/kg in series [3]; 3 mg/kg in series [4]; more than 100 mg/kg in series [5]; 100 mg/kg in series [6].

As a reminder, the ED50 is the dose that gives a 50% effect, or the effect in half of the subjects.
